From article PMC10322702 (Nature Chemistry, 2023)
pIC50, pKd: −log10 of the molar value. Several values for one entry are separate records, joined by “and”; a condition that tells them apart may be missing. Identical values can stand only once. Numbered stars: 1 amine (or outer) side, 2 acyl side, 3 side chain; on linkers, the order of the positions; unused ones are H or OH. Bridge positions count the residues as written; N and C are the ends. Square brackets hold non-standard residues; d marks the D form. Peptide text beside a SMILES is read from it. Acbc(cis-1,3) = O=C([C@H]1C[C@@H](N[*:1])C1)[*:2]; X1 = O=C([C@@H]1CC[C@H](N[*:1])C1)[*:2]

Experiments:
[1] = biological target: T1, SARS-CoV-2 M^pro (Severe acute respiratory syndrome coronavirus 2, UniProt P0DTD1); assay: biochemical; assay type: binding; settings: for kon: read-out: ka (kinetic association)
[2] = biological target: T1, SARS-CoV-2 M^pro; assay: biochemical; assay type: biochemical
[3] = Serum stability assay in human serum (LC/MS)
[4] = 37 °C, incubation time 1 h, relative to 0 h = 100%, technical replicates, 60 min
[5] = 37 °C, incubation time 2 h, relative to 0 h = 100%, technical replicates, 120 min
[6] = 37 °C, incubation time 4 h, relative to 0 h = 100%, technical replicates, 240 min
[7] = 37 °C, incubation time 8 h, relative to 0 h = 100%, technical replicates, 480 min
[8] = 37 °C, incubation time 24 h, relative to 0 h = 100%, technical replicates, 1440 min
[9] = 37 °C, incubation time 50 h, relative to 0 h = 100%, technical replicates, 3000 min
[10] = 37 °C, incubation time 100 h, relative to 0 h = 100%, technical replicates, 6000 min
[11] = human, Remaining peptide (%), 37 °C, incubation time 1 h, relative to 0 h = 100%, technical replicates
[12] = human, Remaining peptide (%), 37 °C, incubation time 2 h, relative to 0 h = 100%, technical replicates
[13] = human, Remaining peptide (%), 37 °C, incubation time 4 h, relative to 0 h = 100%, technical replicates
[14] = human, Remaining peptide (%), 37 °C, incubation time 8 h, relative to 0 h = 100%, technical replicates
[15] = human, Remaining peptide (%), 37 °C, incubation time 24 h, relative to 0 h = 100%, technical replicates
[16] = human, Remaining peptide (%), 37 °C, incubation time 50 h, relative to 0 h = 100%, technical replicates
[17] = human, Remaining peptide (%), 37 °C, incubation time 100 h, relative to 0 h = 100%, technical replicates

SMILES | pKd [1] | kd (kinetic dissociation) [1] | kon [1] | pIC50 [2] | inhibition at 16.6 µM [2] | inhibition at 50.1 µM [2] | Remaining peptide (%) [3, 4] | Remaining peptide (%) [3, 5] | Remaining peptide (%) [3, 6] | Remaining peptide (%) [3, 7] | Remaining peptide (%) [3, 8] | Remaining peptide (%) [3, 9] | Remaining peptide (%) [3, 10] | half-life at 10 μM ([3]; human) | remaining at 1 h, 10 μM [3, 11] | remaining at 2 h, 10 μM [3, 12] | remaining at 4 h, 10 μM [3, 13] | remaining at 8 h, 10 μM [3, 14] | remaining at 24 h, 10 μM [3, 15] | remaining at 50 h, 10 μM [3, 16] | also measured
CC(C)C[C@@H]1NC(=O)[C@H](CC(N)=O)NC(=O)[C@H](CC(C)C)NC(=O)[C@H](CC(N)=O)NC(=O)[C@H](Cc2c[nH]cn2)NC(=O)[C@H](Cc2ccccc2)NC(=O)[C@@H](Cc2ccc(O)cc2)NC(=O)CSC[C@H](C(N)=O)NC(=O)CNC(=O)[C@@H]2CCCN2C(=O)[C@H](CCCNC(=N)N)NC(=O)[C@H](Cc2ccc(O)cc2)NC(=O)CNC1=O [GM4γ^14N] ({CH2CO}-[dY]FHNLNLGYRPG[dC]-NH2; thioether N-13) | 6.32 | 9.5 10^-3 s^-1 | 20000 M⁻¹ s⁻¹ | 6.00 | 100% | 100% | – | – | – | – | – | – | – | – | – | – | – | – | – | – | fold less active than GM4 (M^pro inhibition) [2]: 20 fold
CC[C@H](C)[C@@H]1NC(=O)[C@H](Cc2ccccc2)NC(=O)[C@@H](Cc2ccc(O)cc2)NC(=O)CSC[C@H](C(N)=O)NC(=O)[C@H]([C@@H](C)CC)NC(=O)[C@@H]2CCCN2C(=O)[C@H](CC(C)C)NC(=O)[C@H]2C[C@H](C2)NC(=O)[C@H](Cc2c[nH]cn2)NC(=O)[C@@H]2CCCN2C(=O)[C@H](CC(=O)O)NC(=O)[C@H](Cc2c[nH]cn2)NC(=O)[C@H](Cc2ccccc2)NC(=O)[C@H]([C@@H](C)CC)NC(=O)[C@H]([C@@H](C)O)NC(=O)[C@H](Cc2c[nH]cn2)NC1=O [GM6] ({CH2CO}-[dY]FIHTIFHDPH[Acbc(cis-1,3)]LPI[dC]-NH2; thioether N-16) | 7.09 | 6.4 10^-3 s^-1 | 78000 M⁻¹ s⁻¹ | 5.64 | 100% | 100% | – | – | – | – | – | – | – | – | – | – | – | – | – | – | inhibition at 5.5 µM [2]: 90.2%
CC(C)C[C@@H]1NC(=O)[C@H](CC(N)=O)NC(=O)[C@H](CC(C)C)NC(=O)[C@H]2C[C@H](C2)NC(=O)[C@H](CCC(N)=O)NC(=O)[C@H](Cc2ccccc2)NC(=O)[C@@H](Cc2ccc(O)cc2)NC(=O)CSC[C@H](C(N)=O)NC(=O)CNC(=O)[C@@H]2CCCN2C(=O)[C@H](CCCNC(=N)N)NC(=O)[C@H](Cc2ccc(O)cc2)NC(=O)CNC1=O [GM4H3Q] ({CH2CO}-[dY]FQ[Acbc(cis-1,3)]LNLGYRPG[dC]-NH2; thioether N-13) | 9.07 | 1.0 10^-3 s^-1 | 1.2e+06 M⁻¹ s⁻¹ | 8.00 | – | – | 98.03% and 94.19% | 84.19% and 81.93% | 100.31% and 98.70% | 92.68% and 86.88% | 77.71% and 81.24% | 64.07% and 63.70% | 43.40% and 43.85% | 82 h | 93.4% | 87.5% | 99.9% | 93.9% | 81.3% | 70.1% | fold change in binding affinity relative to the original peptide [1]: sixfold stronger; remaining at 100 h, 10 μM [3, 17]: 44.2%; fold more potent inhibitory activity relative to GM4 [2]: fivefold more potent; inhibition at 0.186 µM [2]: 96%; inhibition at 0.55 µM [2]: 100%; inhibition at 1.66 µM [2]: 100%; inhibition at 5.01 µM [2]: 100%
CC(C)C[C@@H]1NC(=O)[C@H](CC(N)=O)NC(=O)[C@H](CC(C)C)NC(=O)[C@H]2C[C@H](C2)NC(=O)[C@H](CCC(=O)O)NC(=O)[C@H](Cc2ccccc2)NC(=O)[C@@H](Cc2ccc(O)cc2)NC(=O)CSC[C@H](C(N)=O)NC(=O)CNC(=O)[C@@H]2CCCN2C(=O)[C@H](CCCNC(=N)N)NC(=O)[C@H](Cc2ccc(O)cc2)NC(=O)CNC1=O [GM4H3E] ({CH2CO}-[dY]FE[Acbc(cis-1,3)]LNLGYRPG[dC]-NH2; thioether N-13) | 6.44 | 7.1 10^-3 s^-1 | 20000 M⁻¹ s⁻¹ | < 4.60 | – | – | – | – | – | – | – | – | – | – | – | – | – | – | – | – | inhibition of M^pro (in words) [2]: observed only with the highest tested concentration (25 µM)
CC[C@H](C)[C@@H]1NC(=O)[C@H](CO)NC(=O)[C@H](Cc2ccccc2)NC(=O)[C@H]2C[C@H](C2)NC(=O)[C@H](Cc2c[nH]cn2)NC(=O)[C@H](Cc2ccccc2)NC(=O)[C@@H](Cc2ccc(O)cc2)NC(=O)CSC[C@H](C(N)=O)NC(=O)[C@H](CC(C)C)NC(=O)[C@H](CCCNC(=N)N)NC(=O)[C@H](Cc2ccc(O)cc2)NC(=O)[C@H](CCCNC(=N)N)NC(=O)[C@H](Cc2ccccc2)NC1=O [GM2] ({CH2CO}-[dY]FH[Acbc(cis-1,3)]FSIFRYRL[dC]-NH2; thioether N-13) | 7.15 | 15 10^-3 s^-1 | 210000 M⁻¹ s⁻¹ | 5.76 | – | – | 55.82% and 51.95% | 34.08% and 32.68% | 19.16% and 17.53% | 10.08% and 8.62% | 1.74% and 1.76% | – | – | 1.1 h | 48.3% | 36% | 17.5% | 9.99% | 1.85% | – | Remaining peptide (%) ([3]; 37 °C, incubation time 0.5 h, relative to 0 h = 100%, technical replicates, 30 min): 61.67% and 57.11%; remaining at 0.5 h, 10 μM ([3]; human, Remaining peptide (%), 37 °C, incubation time 0.5 h, relative to 0 h = 100%, technical replicates): 57.7%; inhibition at 2.75 µM [2]: 75.7%; inhibition at 8.32 µM [2]: 96.8%
CC[C@H](C)[C@@H]1NC(=O)[C@H](Cc2ccc(O)cc2)NC(=O)[C@H]([C@@H](C)O)NC(=O)[C@H](C)NC(=O)[C@@H]2CC[C@@H](C2)NC(=O)[C@H](CO)NC(=O)[C@H]([C@@H](C)O)NC(=O)[C@H](Cc2ccc(O)cc2)NC(=O)[C@H](Cc2ccccc2)NC(=O)[C@H](Cc2c[nH]cn2)NC(=O)[C@H](CC(C)C)NC(=O)[C@@H](Cc2ccc(O)cc2)NC(=O)CSC[C@H](C(N)=O)NC(=O)[C@@H]2CCCN2C(=O)[C@H](Cc2ccc(O)cc2)NC1=O [GM7, ^AcyLHFYTSγ^2ATYIYPc-NH2] ({CH2CO}-[dY]LHFYTS[X1]ATYIYP[dC]-NH2; thioether N-15) | 6.31 | 23 10^-3 s^-1 | 48000 M⁻¹ s⁻¹ | 5.10 | – | – | – | – | – | – | – | – | – | – | – | – | – | – | – | – | inhibition at 25.1 µM [2]: 96%
CC[C@H](C)[C@@H]1NC(=O)[C@H](Cc2ccc(O)cc2)NC(=O)[C@H](CC(C)C)NC(=O)[C@H](CC(=O)O)NC(=O)[C@H](CCCNC(=N)N)NC(=O)[C@H](Cc2ccccc2)NC(=O)[C@@H]2CC[C@@H](C2)NC(=O)[C@H](Cc2c[nH]cn2)NC(=O)[C@H](Cc2ccccc2)NC(=O)[C@@H](Cc2ccc(O)cc2)NC(=O)CSC[C@H](C(N)=O)NC(=O)CNC(=O)[C@H](CC(C)C)NC1=O [GM5] ({CH2CO}-[dY]FH[X1]FRDLYILG[dC]-NH2; thioether N-13) | 8.28 | 1.2 10^-3 s^-1 | 240000 M⁻¹ s⁻¹ | 7.40 | 100% | 100% | 101.31% and 104.14% | – | 77.04% and 80.18% | 83.97% and 82.30% | 66.27% and 59.32% | 29.51% and 26.23% | 20.75% and 19.44% | 32 h | 101% | – | 78.7% | 83% | 58.4% | 30.7% | remaining at 100 h, 10 μM [3, 17]: 19.9%; inhibition at 1.86 µM [2]: 100%; inhibition at 5.62 µM [2]: 100%; inhibition at […] [2]: 100%
CC(C)C[C@@H]1NC(=O)[C@H](C)NC(=O)[C@H](Cc2c[nH]cn2)NC(=O)[C@H](Cc2ccccc2)NC(=O)[C@@H](Cc2ccc(O)cc2)NC(=O)CSC[C@H](C(N)=O)NC(=O)CNC(=O)[C@@H]2CCCN2C(=O)[C@H](CCCNC(=N)N)NC(=O)[C@H](Cc2ccc(O)cc2)NC(=O)CNC(=O)[C@H](CC(C)C)NC(=O)[C@H](CC(N)=O)NC1=O [GM4γ^14A] ({CH2CO}-[dY]FHALNLGYRPG[dC]-NH2; thioether N-13) | 8.62 | 2.6 10^-3 s^-1 | 1.1e+06 M⁻¹ s⁻¹ | 8.00 | 100% | 100% | 80.98% and 76.08% | 68.35% and 66.59% | 75.33% and 71.01% | 60.41% and 56.42% | 37.15% and 33.37% | 12.36% and 12.37% | 2.74% and 5.40% and 2.53% | 11 h | 74.2% | 67.6% | 66.7% | 53.6% | 32.3% | 12.3% | inhibition at 0.209 µM [2]: 100%; inhibition at 1.86 µM [2]: 100%; inhibition at 5.62 µM [2]: 100%; inhibition at […] [2]: 100%
CC(C)C[C@@H]1NC(=O)[C@H](CC(N)=O)NC(=O)[C@H](CC(C)C)NC(=O)[C@H]2C[C@H](C2)NC(=O)[C@H](C)NC(=O)[C@H](Cc2ccccc2)NC(=O)[C@@H](Cc2ccc(O)cc2)NC(=O)CSC[C@H](C(N)=O)NC(=O)CNC(=O)[C@@H]2CCCN2C(=O)[C@H](CCCNC(=N)N)NC(=O)[C@H](Cc2ccc(O)cc2)NC(=O)CNC1=O [GM4H3A] ({CH2CO}-[dY]FA[Acbc(cis-1,3)]LNLGYRPG[dC]-NH2; thioether N-13) | < 5.00 | – | – | < 4.60 | – | – | – | – | – | – | – | – | – | – | – | – | – | – | – | – | inhibition of M^pro (in words) [2]: no inhibition
